The source of these data is patent publication US20230365554A1, “SUBSTITUTED PYRROLO-PYRIDINONE DERIVATIVES AND THERAPEUTIC USES THEREOF” (The Broad Institute, Inc., priority 2020, published 2023).

In one test the target is human CSNK1A1 (Homo sapiens (Human), UniProt P48729). The test is described as follows: CSNK1A1 Assay 2 (ADP-Glo, 1 μM ATP). The format is biochemical. The conditions noted are these: median, Table 2, read-out: CSNK1A1 Assay 2 IC50 [mol/l] (median). Here is the method: CSNK1A1-inhibitory activity of compounds of the present invention in presence of 1 μM adenosine-tri-phosphate (ATP) was quantified employing the CSNK1A1 assay as described in the following paragraphs. In essence, the enzyme activity is measured by quantification of the adenosine-di-phosphate (ADP), which is generated as a co-product of the enzyme reaction, via the “ADP-Glo™ Kinase Assay” kit from the company Promega. This detection system works as follows: In a first step the ATP not consumed in the kinase reaction is quantitatively converted to cAMP employing an adenylate cyclase (“ADP-Glo-reagent”), then the adenylate cyclase is stopped and the ADP generated in the kinase reaction converted to ATP which generates in a luciferase-based reaction a glow-luminescence signal (“Kinase Detection Reagent”).
human CSNK1A1, sequence (P48729 whole entry): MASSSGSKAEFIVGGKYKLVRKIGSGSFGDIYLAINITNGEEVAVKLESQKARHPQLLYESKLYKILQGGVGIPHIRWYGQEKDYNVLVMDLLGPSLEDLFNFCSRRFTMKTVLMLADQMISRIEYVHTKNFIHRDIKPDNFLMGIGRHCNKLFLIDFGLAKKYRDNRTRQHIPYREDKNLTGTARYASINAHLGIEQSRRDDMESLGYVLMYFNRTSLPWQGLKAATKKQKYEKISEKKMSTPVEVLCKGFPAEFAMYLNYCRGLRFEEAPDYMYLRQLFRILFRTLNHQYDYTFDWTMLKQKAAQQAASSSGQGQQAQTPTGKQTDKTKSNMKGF
Recombinant fusion protein of N-terminal Glutathion-S-Transferase (GST) and full-length human CSNK1A1, expressed by baculovirus infected insect cells and purified via Glutathion affinity chromatography, was purchased from Life Technologies (product no. PV4174) and used as enzyme. As substrate for the kinase reaction the biotinylated peptide biotin-Ahx-KRRRAL-pS-VASLPGL (C-terminus in amide form) was used which can be purchased e.g. from the company Biosyntan (Berlin-Buch, Germany).
For the assay 50 nl of a 100 fold concentrated solution of the test compound in DMSO was pipetted into a white 1536-well microtiter plate (Greiner Bio-One, Frickenhausen, Germany), 2 μL of a solution of CSNK1A1 in aqueous assay buffer [50 mM HEPES pH 7.5, 10% (v/v) glycerol, 10 mM MgCl2, 50 mM NaCl, 1 mM dithiothreitol, 0.01% (w/v) bovine serum albumin, 0.01% (v/v) Triton X-100] were added and the mixture was incubated for 15 min at 22° C. to allow pre-binding of the test compounds to the enzyme before the start of the kinase reaction. Then the kinase reaction was started by the addition of 3 μL of a solution of ATP (1.67 μM=>final conc. in the 5 μL assay volume is 1 μM) and peptide substrate (50 μM=>final conc. in the 5 μL assay volume is 30 μM) in assay buffer and the resulting mixture was incubated for a reaction time of 30 min at 22° C. The concentration of CSNK1A1 was adjusted depending of the activity of the enzyme lot and was chosen appropriate to have the assay in the linear range, a typical concentrations are about 0.0375 ng/μL. The reaction was stopped by the addition of 2.5 μL of “ADP-Glo-reagent” (1:1.5 fold diluted with water) and the resulting mixture was incubated at 22° C. for 1 h to convert the ATP not consumed in the kinase reaction completely […]. Subsequently 2.5 μL of the “kinase detection reagent” (1.2 fold more concentrated than recommended by the producer) were added, the resulting mixture was incubated at 22° C. for 1 h and then the luminescence measured with a suitable measurement instrument (e.g. Viewlux™ from Perkin-Elmer). The amount of emitted light was taken as a measure for the amount of ADP generated and thereby for the activity of the CSNK1A1.
(§1) The data were normalised (enzyme reaction without inhibitor=0% inhibition, all other assay components but no enzyme=100% inhibition).
(In general: ADP-Glo turns the ADP formed in a reaction into a luminescent signal.)

For another test, the target named is human CSNK1D (Homo sapiens (Human), UniProt P48730). The test is described as follows: CSNK1D assay (ADP-Glo, 1 μM ATP). The conditions noted are these: median, Table 2, read-out: CSNK1D IC50 [mol/l] (median). The format is biochemical. Here is the method:
CSNK1D-inhibitory activity of compounds of the present invention in presence of 1 μM adenosine-tri-phosphate (ATP) was quantified employing the CSNK1D assay as described in the following paragraphs. In essence, the enzyme activity is measured by quantification of the adenosine-di-phosphate (ADP), which is generated as a co-product of the enzyme reaction, via the “ADP-Glo™ Kinase Assay” kit from the company Promega. This detection system works as follows: In a first step the ATP not consumed in the kinase reaction is quantitatively converted to cAMP employing an adenylate cyclase (“ADP-Glo-reagent”), then the adenylate cyclase is stopped and the ADP generated in the kinase reaction converted to ATP which generates in a luciferase-based reaction a glow-luminescence signal (“Kinase Detection Reagent”).
Recombinant fusion protein of N-terminal Glutathion-S-Transferase (GST) and full-length human CSNK1D, expressed by baculovirus infected insect cells and purified via Glutathion affinity chromatography, was purchased from Life Technologies (product no. PV3665) and used as enzyme. As substrate for the kinase reaction the biotinylated peptide Btn-Ahx-SGSEGDSESGEEEG (C-terminus in amide form) was used which can be purchased e.g. from the company Biosyntan (Berlin-Buch, Germany).
For the assay 50 nl of a 100 fold concentrated solution of the test compound in DMSO was pipetted into a white 1536-well microtiter plate (Greiner Bio-One, Frickenhausen, Germany), 2 μL of a solution of CSNK1D in aqueous assay buffer [50 mM HEPES pH 7.5, 10% (v/v) glycerol, 10 mM MgCl2, 50 mM NaCl, 1 mM dithiothreitol, 0.01% (w/v) bovine serum albumin, 0.01% (v/v) Triton X-100] were added and the mixture was incubated for 15 min at 22° C. to allow pre-binding of the test compounds to the enzyme before the start of the kinase reaction. Then the kinase reaction was started by the addition of 3 μL of a solution of ATP (1.67 μM=>final conc. in the 5 μL assay volume is 1 μM) and peptide substrate (50 μM=>final conc. in the 5 μL assay volume is 30 μM) in assay buffer and the resulting mixture was incubated for a reaction time of 30 min at 22° C. The concentration of CSNK1D was adjusted depending of the activity of the enzyme lot and was chosen appropriate to have the assay in the linear range, a typical concentration is about 0.5 ng/μL. The reaction was stopped by the addition of 2.5 μL of “ADP-Glo-reagent” (1:1.5 fold diluted with water) and the resulting mixture was incubated at 22° C. for 1 h to convert the ATP not consumed in the kinase reaction completely […]. Subsequently 2.5 μL of the “kinase detection reagent” (1.2 fold more concentrated than recommended by the producer) were added, the resulting mixture was incubated at 22° C. for 1 h and then the luminescence measured with a suitable measurement instrument (e.g. Viewlux™ from Perkin-Elmer). The amount of emitted light was taken as a measure for the amount of ADP generated and thereby for the activity of the CSNK1D.
as §1

human CSNK1D, sequence (P48730 whole entry): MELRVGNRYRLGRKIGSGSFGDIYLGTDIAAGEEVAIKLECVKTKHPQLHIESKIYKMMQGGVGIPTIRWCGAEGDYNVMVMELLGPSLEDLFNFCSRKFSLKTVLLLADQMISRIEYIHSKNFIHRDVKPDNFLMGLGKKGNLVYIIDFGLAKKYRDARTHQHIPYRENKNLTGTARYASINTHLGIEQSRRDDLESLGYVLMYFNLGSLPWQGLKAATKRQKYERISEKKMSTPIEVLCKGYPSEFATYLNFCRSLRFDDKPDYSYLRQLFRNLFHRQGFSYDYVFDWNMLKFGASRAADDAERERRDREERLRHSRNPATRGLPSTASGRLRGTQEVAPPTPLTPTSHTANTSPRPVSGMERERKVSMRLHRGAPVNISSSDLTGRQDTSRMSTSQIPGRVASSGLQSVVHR

For the molecule `CN1CC(CC(F)(F)F)c2[nH]c(-c3ccnc(NC(=O)C(CC(F)F)c4ccc(F)cc4)c3)c(Nc3cscn3)c2C1=O` (racemic) [Example 52, (2RS)-4,4-difluoro-2-(4-fluorophenyl)-N-{4-[(7RS)-5-methyl-4-oxo-3-[(1,3-thiazol-4-yl)amino]-7-(2,2,2-trifluoroethyl)-4,5,6,7-tetrahydro-1H-pyrrolo[3,2-c]pyridin-2-yl]pyridin-2-yl}butanamide], the IC50 at human CSNK1A1 is 7.9 nM; on human CSNK1D, 12 nM.

Regarding `CCC1CNC(=O)c2c1[nH]c(-c1ccnc(NC(=O)Cc3ccc(F)cc3)c1)c2Nc1ccccc1` (single isomer, unassigned) [Example 2, N-{4-[3-anilino-7-ethyl-4-oxo-4,5,6,7-tetrahydro-1H-pyrrolo[3,2-c]pyridin-2-yl]pyridin-2-yl}-2-(4-fluorophenyl)acetamide], the IC50 on human CSNK1A1 came to 3.3 nM; on human CSNK1D, 5.2 nM.

As to `CCC1CNC(=O)c2c1[nH]c(-c1ccnc(NC(=O)Cc3ccc(F)cc3)c1)c2Nc1ccccc1` (single isomer, unassigned) [Example 3, N-{4-[3-anilino-7-ethyl-4-oxo-4,5,6,7-tetrahydro-1H-pyrrolo[3,2-c]pyridin-2-yl]pyridin-2-yl}-2-(4-fluorophenyl)acetamide], the IC50 at human CSNK1A1 came to 3.8 nM; on human CSNK1D it was 10 nM.

Regarding `Cc1cn(C)c(=O)c2c(Nc3ccccc3)c(-c3ccnc(NC(=O)C(CC(F)F)c4ccc(F)cc4)c3)[nH]c12` (single isomer, unassigned) [Example 12, N-[4-(3-anilino-5,7-dimethyl-4-oxo-4,5-dihydro-1H-pyrrolo[3,2-c]pyridin-2-yl)pyridin-2-yl]-4,4-difluoro-2-(4-fluorophenyl)butanamide], the IC50 was 180 nM at human CSNK1A1 and 160 nM on human CSNK1D.

As to `Cc1cn(C)c(=O)c2c(Nc3ccccc3)c(-c3ccnc(NC(=O)C(CC(F)F)c4ccc(F)cc4)c3)[nH]c12` (single isomer, unassigned) [Example 13, N-[4-(3-anilino-5,7-dimethyl-4-oxo-4,5-dihydro-1H-pyrrolo[3,2-c]pyridin-2-yl)pyridin-2-yl]-4,4-difluoro-2-(4-fluorophenyl)butanamide], the IC50 on human CSNK1A1 came to 19 nM; on human CSNK1D it was 22 nM.

In the case of `CN1CC(CC(F)(F)F)c2[nH]c(-c3ccnc(NC(=O)Cc4ccc(F)cc4)c3)c(Nc3ccccc3)c2C1=O` (single isomer, unassigned) [Example 15, N-{4-[3-anilino-5-methyl-4-oxo-7-(2,2,2-trifluoroethyl)-4,5,6,7-tetrahydro-1H-pyrrolo[3,2-c]pyridin-2-yl]pyridin-2-yl}-2-(4-fluorophenyl)acetamide], the IC50 at human CSNK1A1 stood at 9.4 nM; on human CSNK1D, 20 nM.

`CN1CC(CC(F)(F)F)c2[nH]c(-c3ccnc(NC(=O)Cc4ccc(F)cc4)c3)c(Nc3ccccc3)c2C1=O` (single isomer, unassigned) [Example 16, N-{4-[3-anilino-5-methyl-4-oxo-7-(2,2,2-trifluoroethyl)-4,5,6,7-tetrahydro-1H-pyrrolo[3,2-c]pyridin-2-yl]pyridin-2-yl}-2-(4-fluorophenyl)acetamide]: the IC50 on human CSNK1A1 came out at 4.3 nM; at human CSNK1D, 7.1 nM.

Turning to `CN1CC(CC2CC2)c2[nH]c(-c3ccnc(NC(=O)Cc4ccc(F)cc4)c3)c(Nc3ccccc3)c2C1=O` (single isomer, unassigned) [Example 19, N-{4-[3-anilino-7-(cyclopropylmethyl)-5-methyl-4-oxo-4,5,6,7-tetrahydro-1H-pyrrolo[3,2-c]pyridin-2-yl]pyridin-2-yl}-2-(4-fluorophenyl)acetamide], the IC50 on human CSNK1A1 was 3.9 nM; on human CSNK1D it was 6.5 nM.

With `CN1CC(CC2CC2)c2[nH]c(-c3ccnc(NC(=O)Cc4ccc(F)cc4)c3)c(Nc3ccccc3)c2C1=O` (single isomer, unassigned) [Example 20, N-{4-[3-anilino-7-(cyclopropylmethyl)-5-methyl-4-oxo-4,5,6,7-tetrahydro-1H-pyrrolo[3,2-c]pyridin-2-yl]pyridin-2-yl}-2-(4-fluorophenyl)acetamide], the IC50 at human CSNK1A1 is 17 nM; at human CSNK1D, 29 nM.
